Experimental data published in patent US9546196B2, “Compositions and methods of treatment of cancers” (The University of Toledo, priority 2009, dated 2017).

Columns and labels:
LNCaP cell culture = assay type: cell-based
From the text: In one non-limiting example, Peptide A-8R [SEQ ID NO: 1] can be truncated to a smaller peptide that retains the same type of biological activity profile. In certain embodiments, truncating Peptide A-8R [SEQ ID NO: 1] results in greater potency upon conversion of some of the pharmacophore functionalities to peptidomimetic groups that can, in turn, enhance key interactions by lowering the net binding energy. In one experiment, Peptide A-8R [SEQ ID NO: 1] was divided into two parts, using the central proline residue as the division point. […] A minimum number of amino acids desired for cytotoxicity was then identified. […] The following Peptide A truncated and derivative probes were synthesized and evaluated for their effect on cytotoxicity after 3- and 6-day exposures:
The following table lists cell culture data for truncated Peptide A peptides. The amino acid sequences and IC50 values in μM concentrations depict cytotoxicity after 3- and 6-day exposures (“NotA” means not active). “8R” [SEQ ID NO: 6] signifies that 8 arginines are present on the carboxy terminus to mediate membrane translocation. The data has shown that the 8R terminus [SEQ ID NO: 6] can be either as the free carboxy (—OH) or amide (—NH2) with no alteration of permeation or observed activity.
The table below lists LNCaP cell culture data for various Peptide A derivatives, displaying the observed IC50 values in μM concentrations after 3- and 6-day exposures.

[1] = system: C81 (androgen-refractory LNCaP) cells; assay: C81 cell density with peptide; assay type: cell-based; settings: 10 μM peptide; 1-8 hrs
Experimental: FIG. 15B: C81 (androgen-refractory LNCaP) cells were grown for 1-8 hrs in the presence of 10 μM Peptide A-8R [SEQ ID NO: 1] or vehicle and then cell density was measured.
To measure how rapid the cytotoxic effect of Peptide A-8R [SEQ ID NO: 1] occurs, LNCaP cells were treated with 10 μM peptide and incubated for 1-8 hrs. […] Using the same conditions, C81 cells were used to study the peptide effect on hormone-refractory prostate cancer cells.

[2] = system: PC-3 prostate cancer cells; assay: PC-3 cell density with peptide; assay type: cell-based; settings: even at 100 μM; 3 or 6 days; no endogenous sGCα1
Experimental: FIG. 17A: PC-3 prostate cancer cells were grown for 3 or 6 days in the presence of increasing concentration of Peptide A-8R [SEQ ID NO: 1] or vehicle and then cell density was measured.

Caspase 3/7 = Caspase 3/7 activity in LNCaP cells; assay type: cell-based; settings: 10 mM Peptide A-8R
Experimental: FIG. 18A: LNCaP cells were grown for 1-24 hrs in the presence of vehicle, […] Peptide A-8R [SEQ ID NO: 1], or […] Etoposide and then measured for Caspase 3/7 activity.
To determine if the cytotoxicity of Peptide A-8R [SEQ ID NO: 1] is through apoptosis, LNCaP cells were monitored for Caspase 3/7 activity. […] Thus, Peptide A-8R [SEQ ID NO: 1] was able to induce Caspase 3/7 activity much faster than the well-studied apoptosis-inducing drug Etoposide. To confirm that the Peptide was killing cells via apoptosis, the inventors used the pan-caspase inhibitor Z-VAD-FMK.

LNCaP xenograft tumors = LNCaP xenograft tumors in nude mice, intratumoral injection; assay type: in vivo
Experimental: FIG. 20: Peptide A-8R [SEQ ID NO: 1] inhibits the growth of LNCaP prostate xenograft tumors. LNCaP xenograft tumors were grown in nude mice to a size of 200-400 cubic mm and then treated with daily intratumoral injections of either Peptide A-8R [SEQ ID NO: 1] (80 mg/kg of animal) or Vehicle (DMSO) for seven days, after which the tumors were left untreated and allowed to grow for an additional 2-3 weeks. Each point represents the average tumor size of three animals plus/minus the standard deviations. Note that open squares or circles represent no treatment of either Peptide A-8R [SEQ ID NO: 1] or vehicle.
This was analyzed using LNCaP xenograft tumors established in nude mice and direct injection of Peptide A-8R [SEQ ID NO: 1] (FIG. 20).

“Ac-TFCKAFPFHIIRRRRRRRR-OH [Peptide A-8R]” was tested, and the Cytotoxicity (LNCaP cell culture) was “Yes”, the “killing of C81 cells” value [1] was “very effective at killing” and the “effect on PC-3 cells” value [2] was “little to no effect”. For the same substance, the “increase in caspase activity” value (Caspase 3/7; after 8 hrs) was roughly 4 fold, the caspase activity (Caspase 3/7; after 24 hrs) was “diminished to Vehicle levels” and the “increase in caspase activity” value (Caspase 3/7; by 1 hour) was 2 fold. For the same substance, the “tumor growth during treatment” value (LNCaP xenograft tumors; 80 mg/kg daily intratumoral, seven daily injections) was “strongly inhibited tumor growth and actually caused tumor regression” and the “tumor growth after stopping peptide injection” value (LNCaP xenograft tumors; additional 2-3 weeks untreated, versus Vehicle) was “grew significantly more slowly”.
